Tests used:
Lagenaria siceraria [1] = assay: Phytotoxicity against Lagenaria siceraria 'Emphasis' rootstock seedlings assessed as stunted growth; format: organism-based; conditions: in vivo
Podosphaera xanthii [2] = assay: (§1) Fungicidal activity against Podosphaera xanthii (powdery mildew) inoculated in Lagenaria siceraria Emphasis continuously after first drug application assessed as disease severity at 40% in 0.37 ml/L applied thrice at 5-days intervals measured 5 days after third application under green house conditions (water Rvb = 53.5%); format: functional
[3] = tested on: Cucurbita maxima x Cucurbita moschata; assay: Phytotoxicity against inter-specific squash hybrid Cucurbita moschata x Cucurbita maxima (Strong tosa) rootstock seedlings assessed as stunted growth; format: organism-based; conditions: in vivo
Podosphaera xanthii [4] = assay: Fungicidal activity against Podosphaera xanthii (powdery mildew) inoculated in Lagenaria siceraria Emphasis continuously after first drug application assessed as incidence of disease symptoms on hypocotyls or upper or lower sides of cotyledons at 40% in 0.37 ml/L applied thrice at 5-days intervals measured 5 days after third application under green house conditions (water Rvb = 100%); format: functional
Podosphaera xanthii [5] = assay: Fungicidal activity against Podosphaera xanthii (powdery mildew) inoculated in inter-specific squash hybrid Strong tosa (Cucurbita moschata x Cucurbita maxima) rootstock seedlings for 7 days prior to drug application assessed as incidence of disease symptoms on hypocotyls or upper or lower sides of cotyledons at 40% in 0.37 ml/L applied once measured 7 days post-drug dose under greenhouse …; format: functional
Podosphaera xanthii [6] = assay: as §1, with “squash (Cucurbita pepo) rootstock seedlings” for “Lagenaria siceraria Emphasis”, “3.9%)” for “53.5%)”; format: functional
Podosphaera xanthii [7] = assay: Fungicidal activity against Podosphaera xanthii (powdery mildew) inoculated in squash (Cucurbita pepo) rootstock seedlings continuously after first drug application assessed as incidence of disease symptoms on hypocotyls or upper or lower sides of cotyledons at 40% in 0.37 ml/L applied thrice at 5-days intervals measured 5 days after third application under green house conditions (water Rvb = …; format: functional
Podosphaera xanthii [8] = assay: (§2) Fungicidal activity against Podosphaera xanthii (powdery mildew) inoculated in inter-specific squash hybrid Strong tosa (Cucurbita moschata x Cucurbita maxima) rootstock seedlings for 7 days prior to drug application assessed as disease severity on lower surface areas of cotyledonsat 40% in 0.37 ml/L applied once measured 7 days post-drug dose under greenhouse conditions (water Rvb = 5.1%); format: functional
Podosphaera xanthii [9] = assay: as §1, with “severity on upper surface areas of cotyledons” for “severity”, “36.8%)” for “53.5%)”; format: functional
Podosphaera xanthii [10] = assay: as §2, with “upper” for “lower”, “10.2%)” for “5.1%)”; format: functional
Podosphaera xanthii [11] = assay: as §1, with “severity on lower surface areas of cotyledons” for “severity”, “13.9%)” for “53.5%)”; format: functional
Podosphaera xanthii [12] = assay: as §2, with “at” for “on lower surface areas of cotyledonsat”, “17.5%)” for “5.1%)”; format: functional
[13] = tested on: Cucurbita maxima x Cucurbita moschata; assay: Phytotoxicity against inter-specific squash hybrid Cucurbita moschata x Cucurbita maxima (Strong tosa) rootstock seedlings; format: organism-based; conditions: in vivo
Lagenaria siceraria [14] = assay: Phytotoxicity against Lagenaria siceraria 'Emphasis' rootstock seedlings assessed as stunting; format: organism-based; conditions: in vivo
[15] = tested on: Cucurbita maxima x Cucurbita moschata; assay: Phytotoxicity against inter-specific squash hybrid Cucurbita moschata x Cucurbita maxima (Strong tosa) rootstock seedlings assessed as stunting; format: organism-based; conditions: in vivo
Lagenaria siceraria [16] = assay: Phytotoxicity against Lagenaria siceraria 'Emphasis' rootstock seedlings; format: organism-based; conditions: in vivo
Podosphaera xanthii [17] = assay: as §2, with “45%” for “40%”, “0.6 g/L” for “0.37 ml/L”, “rvb” for “Rvb”; format: functional
Podosphaera xanthii [18] = assay: as §1, with “squash (Cucurbita pepo) rootstock seedlings” for “Lagenaria siceraria Emphasis”, “45%” for “40%”, “0.6 g/L” for “0.37 ml/L”, “3.9%)” for “53.5%)”; format: functional
Podosphaera xanthii [19] = assay: Fungicidal activity against Podosphaera xanthii (powdery mildew) inoculated in squash (Cucurbita pepo) rootstock seedlings continuously after first drug application assessed as incidence of disease symptoms on hypocotyls or upper or lower sides of cotyledons at 45% in 0.6 g/L applied thrice at 5-days intervals measured 5 days after third application under green house conditions (water Rvb = …; format: functional
Podosphaera xanthii [20] = assay: as §2, with “at 45%” for “on lower surface areas of cotyledonsat 40%”, “0.6 g/L” for “0.37 ml/L”, “17.5%)” for “5.1%)”; format: functional
Podosphaera xanthii [21] = assay: Fungicidal activity against Podosphaera xanthii (powdery mildew) inoculated in inter-specific squash hybrid Strong tosa (Cucurbita moschata x Cucurbita maxima) rootstock seedlings for 7 days prior to drug application assessed as incidence of disease symptoms on hypocotyls or upper or lower sides of cotyledons at 45% in 0.6 g/L applied once measured 7 days post-drug dose under greenhouse …; format: functional
Podosphaera xanthii [22] = assay: as §2, with “upper” for “lower”, “45%” for “40%”, “0.6 g/L” for “0.37 ml/L”, “10.2%)” for “5.1%)”; format: functional
Podosphaera xanthii [23] = assay: Fungicidal activity against Podosphaera xanthii (powdery mildew) inoculated in inter-specific squash hybrid Strong tosa (Cucurbita moschata x Cucurbita maxima) rootstock seedlings for 7 days prior to drug application assessed as incidence of disease symptoms on hypocotyls or upper or lower sides of cotyledons at 22.58% in 0.47ml/L applied once measured 7 days post-drug dose under greenhouse …; format: functional
Podosphaera xanthii [24] = assay: Fungicidal activity against Podosphaera xanthii (powdery mildew) inoculated in squash (Cucurbita pepo) rootstock seedlings continuously after first drug application assessed as incidence of disease symptoms on hypocotyls or upper or lower sides of cotyledons at 22.58% in 0.47ml/L applied thrice at 5-days intervals measured 5 days after third application under green house conditions (water Rvb = …; format: functional
Podosphaera xanthii [25] = assay: as §2, with “upper” for “lower”, “22.58%” for “40%”, “0.47ml/L” for “0.37 ml/L”, “10.2%)” for “5.1%)”; format: functional
Podosphaera xanthii [26] = assay: as §2, with “at 22.58%” for “on lower surface areas of cotyledonsat 40%”, “0.47ml/L” for “0.37 ml/L”, “17.5%)” for “5.1%)”; format: functional
Podosphaera xanthii [27] = assay: as §1, with “squash (Cucurbita pepo) rootstock seedlings” for “Lagenaria siceraria Emphasis”, “22.58%” for “40%”, “0.47ml/L” for “0.37 ml/L”, “3.9%)” for “53.5%)”; format: functional
Podosphaera xanthii [28] = assay: as §2, with “22.58%” for “40%”, “0.47ml/L” for “0.37 ml/L”; format: functional
[29] = tested on: Cucurbita maxima x Cucurbita moschata; assay: Phytotoxicity against inter-specific squash hybrid Cucurbita moschata x Cucurbita maxima (Strong tosa) rootstock seedlings assessed as severe chlorosis or necrosis on cotyledons; format: organism-based; conditions: in vivo
Lagenaria siceraria [30] = assay: Phytotoxicity against Lagenaria siceraria 'Emphasis' rootstock seedlings assessed as severe chlorosis or necrosis on cotyledons; format: organism-based; conditions: in vivo

What does the source list for CCCCC(C#N)(Cn1cncn1)c1ccc(Cl)cc1 (stereo unspecified) [MYCLOBUTANIL]?
inhibition (INH) (Lagenaria siceraria [1]): 33%; Activity (Podosphaera xanthii [2]): 4.1%; inhibition (INH) [3]: 33%; Activity (Podosphaera xanthii [4]): 65.1%; Activity (Podosphaera xanthii [5]): 2.3%; Activity (Podosphaera xanthii [6]): 0%; Activity (Podosphaera xanthii [7]): 0%; Activity (Podosphaera xanthii [8]): 0.02%; Activity (Podosphaera xanthii [9]): 3.1%; Activity (Podosphaera xanthii [10]): 0.08%; Activity (Podosphaera xanthii [11]): 0.9%; Activity (Podosphaera xanthii [12]): 0.1%

How did the Activity [13] turn out when OO [HYDROGEN PEROXIDE] was run?
Its Activity is “Non-toxic”.

What about the Activity (Lagenaria siceraria [14]) of the same molecule?
The Activity was “Non-toxic”.

And the Activity [15]?
Its Activity is “Non-toxic”.

And the Activity (Lagenaria siceraria [16])?
Its Activity is “Non-toxic”.

Which results are given for COC(=O)NC(=S)Nc1ccccc1NC(=S)NC(=O)OC [THIOPHANATE METHYL]?
Activity (Podosphaera xanthii [17]): 3%; Activity (Podosphaera xanthii [18]): 3.2%; Activity [13]: Non-toxic; Activity (Podosphaera xanthii [19]): 90.8%; Activity (Podosphaera xanthii [20]): 7.4%; Activity (Podosphaera xanthii [21]): 85.4%; Activity (Podosphaera xanthii [22]): 3.9%; Activity (Lagenaria siceraria [16]): Non-toxic

With COPPER HYDROXIDE as the molecule, how does the Activity [13] read?
The Activity was “Non-toxic”.

And the Activity (Lagenaria siceraria [14])?
The Activity was “Non-toxic”.

What about the Activity [15] of the same molecule?
Its Activity is “Non-toxic”.

What about the Activity (Lagenaria siceraria [16]) of the same molecule?
The Activity was “Non-toxic”.

Which results are given for Fc1ccc(Oc2ccnc3cc(Cl)cc(Cl)c23)cc1 [QUINOXYFEN]?
Activity (Podosphaera xanthii [23]): 14.6%; Activity (Podosphaera xanthii [24]): 23.4%; Activity (Podosphaera xanthii [25]): 1.2%; Activity (Podosphaera xanthii [26]): 1.8%; Activity (Podosphaera xanthii [27]): 0.43%; Activity (Podosphaera xanthii [28]): 0.3%; Activity [29]: Toxic; Activity (Lagenaria siceraria [30]): Toxic

— ChEMBL document CHEMBL3044926, “Controlling powdery mildew on cucurbit rootstock seedlings in the greenhouse with fungicides and biofungicides” (Crop Prot, 2012)
